Experimental data published in patent publication US20090291964A1, “Potentiators of Antibacterial Activity” (priority 2003, published 2009).
Read-outs that look alike come from different tables or passages of the source.

Columns and labels:
Assay type in all cases: cell-based
S. aureus ATCC 29213 [1] = test: MIC by NCCLS microdilution, antibacterial agents with and without EPI; details: for MIC: Staphylococcus aureus
Outline: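 Efflux pump inhibitors were combined at fixed concentrations with antibiotics from several classes and tested against Staphylococcus aureus ATCC 29213 to compare minimum inhibitory concentrations with and without inhibitor. The inhibitor level was tied to its minimal effective concentration for ethidium bromide, a general efflux pump substrate. All assays contained a final concentration of 1% DMSO.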

E. faecalis ATCC 29212 = test: MIC by NCCLS microdilution, EtBr/EPI with and without EPI; details: for MIC: Enterococcus faecalis, ATCC29212
S. pneumoniae ATCC 10015 = test: as above; details: for MIC: Streptococcus pneumoniae, ATCC10015
[2] = tested on: S. aureus SA-1199B (NorA overproducing); test: MIC of fluoroquinolones with and without EPI
Outline: (§1)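 Fluoroquinolone MICs determined with and without efflux pump inhibitor in S. aureus SA-1199B (NorA overproducer with A116E GrlA mutation) and SA-K2068 (SA-8325-4 with a non-NorA multidrug efflux pump overproducing mutation). All assays contained 1% DMSO final.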

[3] = tested on: S. aureus SA-K2068 (non-NorA multidrug efflux pump overproducing); test: microbe, parasite or virus in culture
Outline: as §1

[4] = tested on: S. aureus SA-1199 (clinical isolate, susceptible); test: MIC of fluoroquinolones with and without EPI
Outline: (§2)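 Fluoroquinolone MICs determined with and without efflux pump inhibitor; all assays contained 1% DMSO final. SA-8325-4 is NCTC 8325 cured of prophages; SA-1199 is a susceptible clinical isolate.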

S. aureus SA-8325-4 = test: MIC of fluoroquinolones with and without EPI
Outline: as §2

S. aureus ATCC 29213 [5] = test: Minimal effective concentration (MEC) of EPI for gatifloxacin; details: lowest amount of EPI which produces the maximum effect on the MIC of gatifloxacin
Description: The MEC was determined as the minimal concentration of EPI that produced the maximal reduction in substrate MIC.
Since any given compound may be recognized by an unknown number of efflux pumps in a particular organism, we reasoned that the MEC of A-106 and C-9 should vary for different antibiotics. Also, the MEC of A-106 and C-9 should vary with the degree of efflux expression in a given strain. […] This was confirmed with two other wild type strains, SA-8325-4 and SA-1199 (Table 3).

[6] = S. aureus ATCC 29213, EPI at 4X the MEC for EtBr, VX-710 at 100 μg/ml
[7] = S. aureus SA-1199B, EPI at 4X the MEC for EtBr, VX-710 at 100 μg/ml
[8] = SA-1199B, EPIs at 4 times MEC for EtBr, A-106 at 100 μg/ml
[9] = Staphylococcus aureus, read-out: MIC of EtBr with EPI
[10] = K2068, EPIs at 4 times MEC for EtBr, A-106 at 100 μg/ml
[11] = S. aureus K2068, EPI at 4X the MEC for EtBr, VX-710 at 100 μg/ml
[12] = S. aureus SA-1199, EPI at 4X the MEC for EtBr, VX-710 at 100 μg/ml
[13] = S. aureus SA-8325-4, EPI at 4X the MEC for EtBr, VX-710 at 100 μg/ml

COc1cc(C(=O)C(=O)N(C)[C@@H](Cc2ccc(Cl)cc2)C(=O)N(Cc2ccccc2)C(CCc2ccncc2)CCc2ccncc2)cc(OC)c1OC [C-9, (S)—N-Benzyl-2-(methyl-(2-oxo-2-(3,4,5-trimethoxyphenyl)acetyl)amino)-3-(4-chloro-phenyl)-N-(3-pyridin-4-yl-1-(2-pyridin-4-yl-ethyl)propyl)propionamide]
MIC of gatifloxacin with EPI (S. aureus ATCC 29213 [1]; S. aureus ATCC 29213 (Table 4)): 0.125 µg/mL | MIC of ciprofloxacin with EPI (S. aureus ATCC 29213 [1]; [6]): 0.125 µg/mL | MIC of gatifloxacin with EPI (S. aureus ATCC 29213 [1]; [6]): 0.063 µg/mL | MIC of gentamicin with EPI (S. aureus ATCC 29213 [1]; [6]): 0.125 µg/mL | MIC of levofloxacin with EPI (S. aureus ATCC 29213 [1]; [6]): 0.125 µg/mL | MIC of norfloxacin with EPI (S. aureus ATCC 29213 [1]; [6]): 0.5 µg/mL | Fold-reduction in EtBr MIC (S. aureus ATCC 29213 [1]; S. aureus ATCC 29213, EPIs used at the MEC, except VX-710 at 100 μg/ml): 4 | reduction of the MIC of EtBr (S. aureus ATCC 29213 [1]; S. aureus wild type, EPI up to 100 μg/ml, data not shown): 30 fold | MIC (S. aureus ATCC 29213 [1]; ATCC29213, read-out: MIC of EPI, S. aureus ATCC 29213, EPI alone): > 100 µg/mL | MIC (S. aureus ATCC 29213 [1]; ATCC29213, read-out: MIC of EtBr with EPI, S. aureus ATCC 29213, EPI at 4X the MEC for EtBr, VX-710 at 100 μg/ml): 0.8 µg/mL | MIC (S. aureus ATCC 29213 [1]; ATCC29213, read-out: MIC of EtBr with EPI, S. aureus ATCC 29213, EPIs used at the MEC, except VX-710 at 100 μg/ml): 1.6 µg/mL | Fold-reduction in MIC (S. aureus ATCC 29213 [1]; gatifloxacin, S. aureus ATCC 29213): 1 | effect of EPI on the MIC of gatifloxacin (S. aureus ATCC 29213 [1]; wild type strain ATCC 29213): unaffected | Fold-reduction in EtBr MIC (E. faecalis ATCC 29212; E. faecalis ATCC 29212, EPIs used at the MEC, except VX-710 at 100 μg/ml): 2 | MIC (E. faecalis ATCC 29212; E. faecalis ATCC 29212, EPI alone, read-out: MIC of EPI): > 100 µg/mL | MIC (E. faecalis ATCC 29212; E. faecalis ATCC 29212, EPIs used at the MEC, except VX-710 at 100 μg/ml, read-out: MIC of EtBr with EPI): 3.1 µg/mL | intrinsic antibacterial activity of EPI (E. faecalis ATCC 29212; at 100 μg/ml, E. faecalis): no intrinsic antibacterial activity | Fold-reduction in EtBr MIC (S. pneumoniae ATCC 10015; S. pneumoniae ATCC 10015, EPIs used at the MEC, except VX-710 at 100 μg/ml): 2 | MIC (S. pneumoniae ATCC 10015; S. pneumoniae ATCC 10015, EPI alone, read-out: MIC of EPI): > 100 µg/mL | MIC (S. pneumoniae ATCC 10015; S. pneumoniae ATCC 10015, EPIs used at the MEC, except VX-710 at 100 μg/ml, read-out: MIC of EtBr with EPI): 1 µg/mL | intrinsic antibacterial activity of EPI (S. pneumoniae ATCC 10015; at 100 μg/ml, S. pneumoniae): no intrinsic antibacterial activity | MIC of gatifloxacin with EPI ([2]; S. aureus SA-1199B (NorA overproducer) (Table 4)): 0.25 µg/mL | MIC of ciprofloxacin with EPI [2, 7]: 2 µg/mL | MIC of gatifloxacin with EPI [2, 7]: 0.25 µg/mL | MIC of gentamicin with EPI [2, 7]: 0.125 µg/mL | MIC of levofloxacin with EPI [2, 7]: 1 µg/mL | MIC of norfloxacin with EPI [2, 7]: 8 µg/mL | reduction of MIC of ciprofloxacin [2, 8]: 8 fold | reduction of MIC of gatifloxacin [2, 8]: 4 fold | reduction of MIC of levofloxacin [2, 8]: 2 fold | reduction of MIC of norfloxacin [2, 8]: 32 fold | MIC [2, 9]: 3.1 µg/mL | Fold-reduction in MIC ([2]; gatifloxacin, S. aureus SA-1199B (NorA overproducer)): 2 | reduction of MIC of ciprofloxacin [3, 10]: 8 fold | reduction of MIC of gatifloxacin [3, 10]: 4 fold | reduction of MIC of levofloxacin [3, 10]: 2 fold | reduction of MIC of norfloxacin [3, 10]: 8 fold | MIC of gatifloxacin with EPI ([3]; S. aureus K2068 (nonNorA pump overproducer) (Table 4)): 0.5 µg/mL | MIC of ciprofloxacin with EPI [3, 11]: 1 µg/mL | MIC of gatifloxacin with EPI [3, 11]: 0.5 µg/mL | MIC of gentamicin with EPI [3, 11]: 0.063 µg/mL | MIC of levofloxacin with EPI [3, 11]: 0.5 µg/mL | MIC of norfloxacin with EPI [3, 11]: 4 µg/mL | MIC [3, 9]: 3.1 µg/mL | Fold-reduction in MIC ([3]; gatifloxacin, S. aureus K2068 (nonNorA pump overproducer)): 2 | MIC of ciprofloxacin with EPI [4, 12]: 0.125 µg/mL | MIC of gatifloxacin with EPI [4, 12]: 0.063 µg/mL | MIC of gentamicin with EPI [4, 12]: 0.125 µg/mL | MIC of levofloxacin with EPI [4, 12]: 0.125 µg/mL | MIC of norfloxacin with EPI [4, 12]: 0.25 µg/mL | MIC [4, 9]: 1.6 µg/mL | MIC of ciprofloxacin with EPI (S. aureus SA-8325-4; [13]): 0.125 µg/mL | MIC of gatifloxacin with EPI (S. aureus SA-8325-4; [13]): 0.125 µg/mL | MIC of gentamicin with EPI (S. aureus SA-8325-4; [13]): 0.063 µg/mL | MIC of levofloxacin with EPI (S. aureus SA-8325-4; [13]): 0.25 µg/mL | MIC of norfloxacin with EPI (S. aureus SA-8325-4; [13]): 0.25 µg/mL | MIC (S. aureus SA-8325-4; Staphylococcus aureus, SA83254, read-out: MIC of EtBr with EPI): 0.8 µg/mL | MEC (S. aureus ATCC 29213 [5]): >100 µg/mL
